In patent US11999676B2, “Vesicular monoamine transporter-2 ligands and their use in the treatment of psychostimulant abuse” (priority 2016, dated 2024):

Assays:
[1] = Microsomal stability assay, human liver microsomes; details: for CLint scaled at 0.08 µM / half-life at 0.08 µM: both, human, pooled liver microsomes; for CLint scaled at 0.08 µM: pH 7.4, Microsomal stability assays: Clearance; for half-life at 0.08 µM: pH 7.4, Microsomal stability assays: Half-life
Description: (§1) Each plate holds triplicate samples of two controls (0.4 mM) and up to 14 compounds (0.08 mM) in rat and human liver microsomes. Aliquots of each well of the plate (175 μl of each well) were transferred from the master plate into 5 assay plates. For 0-hr time point, pre-cooled (4° C.) internal standard (437.5 μL, 2 μM caffeine in methanol) was added to the first plate before the reaction starts. NADPH regenerating system solution A (6.05 ml, Fisher Scientific, #NC9255727) was combined with NADPH regenerating system solution B (1.21 ml, Fisher Scientific, #NC9016235) in potassium phosphate buffer (15.8 ml, 0.1 M, pH 7.4, 37° C.). The resulting NADPH solution (43.8 μl) was added to each well of all the 96-well assay plates and mixed with pipette briefly making the final protein and compound concentrations respectively: 0.5 mg/ml, 0.08 μM (0.4 μM for controls). Plates were sealed, and all plates except the 0-hr plate were incubated at 37° C., shaken at a speed of 60 rpm. A single assay plate was tested at each time point: 0.5 hr, 1 hr, 2 hr, and 4 hr. At each time point, 437.5 μL of pre-cooled internal standard was added each well of the plate to quench the reaction. […] 120 μl supernatant was transferred to a 96-well plate, centrifuged again and analyzed by UPLC-MS (Waters Inc., Milford, MA). The compounds and internal standard were detected by selected ion recording (SIR).
(§2) The amount of material was measured as a ratio of peak area to the internal standard and graphed. Using the slope from the initial linear portion of this curve, the degradation rate constant is calculated using equation [1].

[2] = target: hERG channel (Homo sapiens (Human), UniProt Q12809); assay: [3H]Dofetilide binding assay, HEK-293 cell membrane preparation; details: [3H]dofetilide, HEK-293 cell membranes; read-out: hERG Binding: Mean Ki ± Standard Deviation
Sequence of hERG channel (Q12809 whole entry): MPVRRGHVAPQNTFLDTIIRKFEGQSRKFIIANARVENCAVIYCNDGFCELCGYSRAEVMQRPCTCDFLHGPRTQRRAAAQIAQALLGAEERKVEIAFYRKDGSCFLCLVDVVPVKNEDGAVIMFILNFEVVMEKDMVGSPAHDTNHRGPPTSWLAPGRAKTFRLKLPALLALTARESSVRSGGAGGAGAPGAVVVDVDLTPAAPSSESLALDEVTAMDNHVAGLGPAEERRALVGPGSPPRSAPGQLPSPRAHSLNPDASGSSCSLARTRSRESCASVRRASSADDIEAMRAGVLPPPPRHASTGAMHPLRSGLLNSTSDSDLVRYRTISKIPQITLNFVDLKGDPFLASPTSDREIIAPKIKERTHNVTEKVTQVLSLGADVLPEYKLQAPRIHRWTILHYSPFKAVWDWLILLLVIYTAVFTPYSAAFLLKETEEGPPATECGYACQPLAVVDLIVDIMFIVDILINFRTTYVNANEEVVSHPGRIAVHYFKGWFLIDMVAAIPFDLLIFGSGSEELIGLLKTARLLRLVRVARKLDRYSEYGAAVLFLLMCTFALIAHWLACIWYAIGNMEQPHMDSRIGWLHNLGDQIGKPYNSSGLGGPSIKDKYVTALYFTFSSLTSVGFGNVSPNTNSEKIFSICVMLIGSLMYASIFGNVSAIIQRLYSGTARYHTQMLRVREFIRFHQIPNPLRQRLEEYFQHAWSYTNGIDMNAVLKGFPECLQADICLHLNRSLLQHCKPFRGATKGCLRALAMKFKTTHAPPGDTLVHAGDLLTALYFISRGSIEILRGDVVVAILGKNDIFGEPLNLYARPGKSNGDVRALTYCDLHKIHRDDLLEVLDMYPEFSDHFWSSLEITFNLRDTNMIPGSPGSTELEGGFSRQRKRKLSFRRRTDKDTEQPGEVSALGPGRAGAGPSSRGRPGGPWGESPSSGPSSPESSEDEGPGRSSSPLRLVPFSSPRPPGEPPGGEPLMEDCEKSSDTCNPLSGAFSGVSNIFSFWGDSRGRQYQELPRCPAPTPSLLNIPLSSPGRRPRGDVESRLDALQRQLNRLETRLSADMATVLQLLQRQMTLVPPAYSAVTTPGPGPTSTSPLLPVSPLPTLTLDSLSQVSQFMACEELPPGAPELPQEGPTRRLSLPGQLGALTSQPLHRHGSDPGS
Description: [^3H]Dofetilide binding assays were conducted using commercially available HEK-293 cell membranes which stably express the hERG channel. Membranes were suspended in assay buffer (50 mM Tris, 10 mM KCl, 1 mM MgCl2, pH 7.4) prior to the experiment. […] Aliquots of the HEK-293 cell membrane suspension which contained 5 μg membrane protein were added to tubes containing assay buffer, 5 nM [^3H]dofetilide and a range of concentrations of analog (10 nM-100 μM). Nonspecific binding was determined in the presence of amitriptyline (1 mM). Samples were incubated for 1 hr. at 24° C., followed by rapid filtration. […] The affinity for the [^3H]dofetilide binding site on the hERG channel expressed in the HEK-293 cellular membrane was determined from the analog concentration response curves.

[3] = target: VMAT2 (Rattus norvegicus (Rat), UniProt Q01827); assay: [3H]Dopamine ([3H]DA) uptake assay, vesicular preparation; type: biochemical; details: [3H]DA uptake, rat; read-out: VMAT2 (rat) Inhibition: Mean Ki ± Standard Deviation
[4] = Microsomal stability assay, rat liver microsomes; details: for CLint scaled at 0.08 µM / half-life at 0.08 µM: female, Sprague-Dawley, rat, liver microsomes; for CLint scaled at 0.08 µM: pH 7.4, Microsomal stability assays: Clearance; for half-life at 0.08 µM: pH 7.4, Microsomal stability assays: Half-life
Description: as §1, §2

For `CC(Cc1ccc(N)cc1)NCCCc1ccc(F)cc1` (stereo not shown) [Compound 112], the “Microsomal stability assays: Clearance” value [1] was 23.5 mL/min/kg, the “Microsomal stability assays: Half-life” value [1] was 0.9 h and the Ki [2] was 2500 ± 435 nM. The Ki [3] was 16.7 ± 3.34 nM.

For `CC(Cc1ccc([N+](=O)[O-])cc1)NCCCc1ccccc1` (stereo not shown) [Compound 115], the CLint scaled at 0.08 µM [1] was < 5.2 mL/min/kg, the half-life at 0.08 µM [1] was > 4 h and the Ki [2] was 285 ± 78.8 nM. The Ki [3] was 19 ± 3.81 nM.

For `CC(Cc1ccc([N+](=O)[O-])cc1)NCCCc1ccc(F)cc1` (stereo not shown) [Compound 118], the CLint scaled at 0.08 µM [1] was < 5.2 mL/min/kg, the half-life at 0.08 µM [1] was > 4 h and the Ki [2] was 206 ± 137 nM. For the same compound, the Ki [3] was 7.08 ± 1.29 nM.

For `CC(Cc1ccc([N+](=O)[O-])cc1)NCCCc1ccc(F)cc1` (stereo not shown) [Compound 120], the “Microsomal stability assays: Clearance” value [1] was <5.20 mL/min/kg, the “Microsomal stability assays: Half-life” value [1] was >4 h and the Ki [2] was 130 ± 25.6 nM. For the same compound, the Ki [3] was 9.85 ± 1.62 nM.

For `CC(Cc1ccc([N+](=O)[O-])cc1)NCCCc1ccc(Br)cc1` (stereo not shown) [Compound 121], the CLint scaled at 0.08 µM [1] was < 5.2 mL/min/kg, the half-life at 0.08 µM [1] was > 4 h and the Ki [2] was 80 ± 67.7 nM. The Ki [3] was 13.4 ± 4.8 nM.

`CC(Cc1ccc(F)cc1)NCCCc1ccccc1` (stereo not shown) [Compound 126] gave a CLint scaled at 0.08 µM [1] of 11.5 mL/min/kg, a half-life at 0.08 µM [1] of 1.8 h and a Ki [2] of 2050 ± 773 nM. For the same compound, the Ki [3] was 19.3 ± 5.14 nM.

In the case of `CC(Cc1ccc(F)cc1)NCCCc1ccc(Br)cc1` (stereo not shown) [Compound 146], the CLint scaled at 0.08 µM [1] is reported as < 5.2 mL/min/kg, the half-life at 0.08 µM [1] is reported as > 4 h and the Ki [2] is reported as 546 ± 199 nM. For the same compound, the Ki [3] was 22.1 ± 6.5 nM.

Work on `CC(Cc1ccc(F)cc1)NCCCc1ccnc2ccccc12` (stereo not shown) [Compound 162] yielded a CLint scaled at 0.08 µM [1] of 102 mL/min/kg, a half-life at 0.08 µM [1] of 0.2 h and a Ki [2] of 2950 ± 1360 nM. It also gave a Ki [3] of 30.5 ± 8.59 nM.

With `CC(Cc1ccc(C(F)(F)F)cc1)NCCCc1ccncc1` (stereo not shown) [Compound 165] the CLint scaled at 0.08 µM [1] was < 5.2 mL/min/kg, the half-life at 0.08 µM [1] was > 4 h and the Ki [2] was 1890 ± 639 nM. It also gave a Ki [3] of 53.2 ± 6.5 nM.

In the case of `CC(Cc1ccc(F)cc1)NCCCc1ccc(-c2ccnn2C)cc1` (stereo not shown) [Compound 166], the CLint scaled at 0.08 µM [1] is reported as 34.3 mL/min/kg, the half-life at 0.08 µM [1] is reported as 0.6 h and the Ki [2] is reported as 2200 ± 251 nM. It also gave a Ki [3] of 46.5 ± 8.97 nM.

With `CC(Cc1ccncc1)NCCCc1ccc(Br)cc1` (stereo not shown) [Compound 168] the CLint scaled at 0.08 µM [1] was 6 mL/min/kg, the half-life at 0.08 µM [1] was 3.5 h and the Ki [2] was 1780 ± 468 nM. The Ki [3] was 41 ± 11.1 nM.

In the case of `CC(Cc1ccncc1)NCCCc1ccc(F)cc1` (stereo not shown) [Compound 186], the CLint scaled at 0.08 µM [1] is reported as 4.3 mL/min/kg, the half-life at 0.08 µM [1] is reported as 4.8 h and the Ki [2] is reported as 3320 ± 1930 nM. The Ki [3] was 72.4 ± 29.8 nM.

In the case of `CC(Cc1ccc(F)cc1)NCCCc1ccc(Cl)cc1` (stereo not shown) [Compound 188], the CLint scaled at 0.08 µM [1] is reported as 4.7 mL/min/kg, the half-life at 0.08 µM [1] is reported as 4.4 h and the Ki [2] is reported as 467 ± 280 nM. For the same compound, the Ki [3] was 22 ± 7.72 nM.

In the case of `CC(Cc1ccc(F)cc1)NCCCc1ccc(F)cc1` (stereo not shown) [Compound 190], the CLint scaled at 0.08 µM [1] is reported as 5.4 mL/min/kg, the half-life at 0.08 µM [1] is reported as 3.9 h and the Ki [2] is reported as 789 ± 221 nM. The Ki [3] was 8.28 ± 0.736 nM.

For `CC(Cc1ccccc1)NCCCc1ccc(C(F)(F)F)cc1` (stereo not shown) [Compound 194], the Ki [2] was 791 ± 270 nM, the Ki [3] was 27.7 ± 7.81 nM and the CLint scaled at 0.08 µM [4] was 138 mL/min/kg. It also gave a half-life at 0.08 µM [4] of 0.3 h.

`CC(Cc1ccc(-c2cncnc2)cc1)NCCCc1ccc(F)cc1` (stereo not shown) [Compound 196] gave a Ki [2] of 402 ± 72.2 nM, a Ki [3] of 7.12 ± 1.59 nM and a CLint scaled at 0.08 µM [4] of 14.7 mL/min/kg. It also gave a half-life at 0.08 µM [4] of 3.2 h.

Work on `CC(Cc1ccc(Br)cc1)NCCCc1ccc(F)cc1` (stereo not shown) [Compound 200] yielded a Ki [2] of 242 ± 76 nM, a Ki [3] of 15.2 ± 8.86 nM and a CLint scaled at 0.08 µM [4] of 186 mL/min/kg. It also gave a half-life at 0.08 µM [4] of 0.3 h.

`CC(Cc1ccccc1)NCCCc1ccncc1` (stereo not shown) [Compound 204] showed a CLint scaled at 0.08 µM [1] of 5.8 mL/min/kg, a half-life at 0.08 µM [1] of 3.6 h and a Ki [2] of 8460 ± 4580 nM. For the same compound, the Ki [3] was 49.1 ± 3.51 nM.

With `CCC(Cc1ccccc1)NCCCc1ccc(O)cc1` (stereo not shown) [Compound 207] the Ki [2] was 2380 ± 517 nM, the Ki [3] was 37.8 ± 6.59 nM and the CLint scaled at 0.08 µM [4] was > 400 mL/min/kg. For the same compound, the half-life at 0.08 µM [4] was < 0.1 h.

In the case of `CC(Cc1ccccc1)NCCCc1ccc(-c2cccnc2)cc1` (stereo not shown) [Compound 210], the Ki [2] is reported as 3120 ± 251 nM, the Ki [3] is reported as 55.4 ± 7.94 nM and the “Microsomal stability assays: Half-life” value [4] is reported as 6 min. The CLint scaled at 0.08 µM [4] was 392 mL/min/kg.

With `CC(Cc1ccccc1)NCCCc1ccc(I)cc1` (stereo not shown) [Compound 212] the Ki [2] was 642 ± 168 nM, the Ki [3] was 22.2 ± 2.21 nM and the “Microsomal stability assays: Clearance” value [4] was 439 mL/min/kg. For the same compound, the “Microsomal stability assays: Half-life” value [4] was 6 min.

For `CC(Cc1ccccc1)NCCCc1ccc(I)cc1` (stereo not shown) [Compound 213], the “Microsomal stability assays: Clearance” value [1] was <5.20 mL/min/kg, the “Microsomal stability assays: Half-life” value [1] was >4 h and the Ki [2] was 642 ± 168 nM. It also gave a Ki [3] of 22.2 ± 2.21 nM.

In the case of `CC(Cc1ccccc1)NCCCc1ccc(I)cc1` (stereo not shown) [Compound 214], the “Microsomal stability assays: Clearance” value [1] is reported as 17.6 mL/min/kg, the “Microsomal stability assays: Half-life” value [1] is reported as 1.2 h and the Ki [2] is reported as 3040 ± 1370 nM. The Ki [3] was 6.86 ± 1.81 nM.

For `CC(Cc1ccccc1)NCCCc1ccc(I)cc1` (stereo not shown) [Compound 215], the Ki [2] was 3040 ± 1370 nM, the Ki [3] was 6.86 ± 1.81 nM and the “Microsomal stability assays: Clearance” value [4] was 148 mL/min/kg. For the same compound, the half-life at 0.08 µM [4] was 0.3 h.

`CC(Cc1ccccc1)NCCCc1ccc(S)cc1` (stereo not shown) [Compound 216] showed a Ki [2] of 4190 ± 1080 nM, a Ki [3] of 65.4 ± 23.4 nM and a CLint scaled at 0.08 µM [4] of 170 mL/min/kg. The half-life at 0.08 µM [4] was 0.3 h.

`CC(Cc1ccccc1)NCCCc1ccc(Br)cc1` (stereo not shown) [Compound 218] gave a CLint scaled at 0.08 µM [1] of 9.5 mL/min/kg, a half-life at 0.08 µM [1] of 2.2 h and a Ki [2] of 421 ± 38.1 nM. For the same compound, the Ki [3] was 14.2 ± 2.17 nM.

In the case of `CC(Cc1ccccc1)NCCCc1ccc(N)cc1` (stereo not shown) [Compound 220], the Ki [2] is reported as 5340 ± 5630 nM, the Ki [3] is reported as 40.4 ± 4.72 nM and the CLint scaled at 0.08 µM [4] is reported as 65.3 mL/min/kg. It also gave a half-life at 0.08 µM [4] of 0.7 h.

With `CC(Cc1ccccc1)NCCCc1ccc([N+](=O)[O-])cc1` (stereo not shown) [Compound 222] the Ki [2] was 96.1 ± 28.3 nM, the Ki [3] was 4.97 ± 3.08 nM and the CLint scaled at 0.08 µM [4] was > 400 mL/min/kg. For the same compound, the half-life at 0.08 µM [4] was < 0.1 h.
